Test in all cases: relative viability (nuclei count vs DMSO), 5 days (fraction); higher = more cells survive
The test system of test [1] is NCI-H1563. The method, boiled down:
(§1)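 Relative viability divides the nuclei count in treated wells by that in vehicle wells. Lung cancer cell lines were seeded in 1536-well plates, dosed by pin tool the next day, and fixed and stained after 5 days in one step with final 0.05% Triton X-100, 1% formaldehyde and 1 ug/ml Hoechst. Dosing was a single drug or a fixed anchor-drug dose plus five library-drug doses (not always all listed) in √10 steps, and values are medians of duplicate plates imaged at 4×.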

Test [2] deals with NCI-H1623. The method, boiled down: as §1
Test [3] relates to NCI-H1648. An outline of the steps:
as §1

Test [4] concerns NCI-H2342. An outline of the steps: as §1
For test [5], the system named is NCI-H522. An outline of the steps: as §1
The subject of test [6] is SW 900. An outline of the steps: as §1
For test [7], the system named is A549. The method, boiled down: as §1

The structures appear in SMILES notation.

Consider `O=c1[nH]c2ccccc2n1C1CCN(CCCC(c2ccc(F)cc2)c2ccc(F)cc2)CC1` [Pimozide] + COc1cccc2cc(-c3nc([C@H]4CC[C@H](C(=O)O)CC4)n4ncnc(N)c34)[nH]c12 [OSI-027] (partner 0.5 µM), for which the relative viability stood at 0.75 in test [1] (first compound 0.08 µM); 0.767 in test [1] (first compound 0.253 µM); 0.817 in test [1] (first compound 0.8 µM); 0.664 in test [1] (first compound 2.53 µM); 0.719 in test [1] (first compound 8 µM); 0.348 in test [2] (first compound 0.08 µM). Further, the relative viability stood at 0.48 in test [2] (first compound 0.253 µM); 0.374 in test [2] (first compound 0.8 µM); 0.416 in test [2] (first compound 2.53 µM); 0.389 in test [2] (first compound 8 µM); 0.275 in test [3] (first compound 0.08 µM); 0.264 in test [3] (first compound 0.253 µM). The relative viability stood at 0.272 in test [3] (first compound 0.8 µM); 0.279 in test [3] (first compound 8 µM); 0.63 in test [4] (first compound 0.08 µM); 0.623 in test [4] (first compound 0.253 µM); 0.615 in test [4] (first compound 0.8 µM); 0.543 in test [4] (first compound 2.53 µM). The relative viability came to 0.599 in test [4] (first compound 8 µM); 0.682 in test [5] (first compound 0.08 µM); 0.586 in test [5] (first compound 0.253 µM); 0.54 in test [5] (first compound 0.8 µM); 0.829 in test [5] (first compound 2.53 µM); 0.682 in test [5] (first compound 8 µM). Also, the relative viability stood at 0.879 in test [6] (first compound 0.08 µM); 0.581 in test [6] (first compound 0.253 µM); 0.273 in test [6] (first compound 0.8 µM); 0.475 in test [6] (first compound 2.53 µM); 0.384 in test [6] (first compound 8 µM).
Consider `Cc1cnc(-c2cnc(NCCNc3ccc(C#N)cn3)nc2-c2ccc(Cl)cc2Cl)[nH]1` + COc1cccc2cc(-c3nc([C@H]4CC[C@H](C(=O)O)CC4)n4ncnc(N)c34)[nH]c12 [OSI-027] (partner 0.5 µM), for which the relative viability in test [1] (first compound 0.08 µM) was determined as 0.798; in test [1] (first compound 0.253 µM) it was 0.733; in test [1] (first compound 0.8 µM), 0.758; in test [1] (first compound 2.53 µM), 0.78; in test [2] (first compound 0.08 µM) it was 0.478; in test [2] (first compound 0.253 µM) it was 0.417. Also, the relative viability in test [2] (first compound 0.8 µM) was 0.413; in test [2] (first compound 2.53 µM), 0.48; in test [3] (first compound 0.08 µM), 0.24; in test [3] (first compound 0.253 µM), 0.259; in test [3] (first compound 0.8 µM) it was 0.242; in test [3] (first compound 2.53 µM), 0.289. The relative viability turned out to be 0.653 in test [4] (first compound 0.08 µM); 0.546 in test [4] (first compound 0.253 µM); 0.556 in test [4] (first compound 0.8 µM); 0.53 in test [4] (first compound 2.53 µM); 0.653 in test [5] (first compound 0.08 µM); 0.705 in test [5] (first compound 0.253 µM). For the same molecule, the relative viability amounted to 0.647 in test [5] (first compound 0.8 µM); 0.885 in test [5] (first compound 2.53 µM); 0.695 in test [6] (first compound 0.08 µM); 0.56 in test [6] (first compound 0.253 µM); 0.502 in test [6] (first compound 0.8 µM); 0.546 in test [6] (first compound 2.53 µM).
For `Cc1cnc(-c2cnc(NCCNc3ccc(C#N)cn3)nc2-c2ccc(Cl)cc2Cl)[nH]1` + Cc1cc(Nc2cc(N3CCN(C)CC3)nc(Sc3ccc(NC(=O)C4CC4)cc3)n2)n[nH]1 [Tozasertib] (partner 0.1 µM), the relative viability stood at 0.477 in test [2] (first compound 0.08 µM); 0.426 in test [2] (first compound 0.253 µM); 0.414 in test [2] (first compound 0.8 µM); 0.417 in test [2] (first compound 2.53 µM); 0.487 in test [3] (first compound 0.08 µM); 0.502 in test [3] (first compound 0.253 µM). For the same molecule, the relative viability came out at 0.465 in test [3] (first compound 0.8 µM); 0.52 in test [3] (first compound 2.53 µM); 0.519 in test [4] (first compound 0.08 µM); 0.513 in test [4] (first compound 0.253 µM); 0.507 in test [4] (first compound 0.8 µM); 0.505 in test [4] (first compound 2.53 µM). In addition, the relative viability in test [5] (first compound 0.08 µM) was 0.629; in test [5] (first compound 0.8 µM), 0.506; in test [5] (first compound 2.53 µM) it was 0.591; in test [6] (first compound 0.08 µM), 0.667; in test [6] (first compound 0.253 µM), 0.511; in test [6] (first compound 0.8 µM), 0.439. In test [6] (first compound 2.53 µM), the relative viability amounted to 0.415.
In the case of `Cc1cnc(-c2cnc(NCCNc3ccc(C#N)cn3)nc2-c2ccc(Cl)cc2Cl)[nH]1` + N=C(N)NC(=N)NCCc1ccccc1 [Phenformin] (partner 250 µM), the relative viability in test [7] (first compound 0.08 µM) is 0.168; in test [7] (first compound 0.253 µM), 0.154; in test [7] (first compound 0.8 µM), 0.151; in test [7] (first compound 2.53 µM), 0.154; in test [1] (first compound 0.08 µM), 0.649; in test [1] (first compound 0.253 µM), 0.647. For the same molecule, the relative viability in test [1] (first compound 0.8 µM) was 0.636; in test [1] (first compound 2.53 µM) it was 0.635; in test [2] (first compound 0.08 µM) it was 0.527; in test [2] (first compound 0.253 µM), 0.503; in test [2] (first compound 0.8 µM) it was 0.581; in test [2] (first compound 2.53 µM), 0.589. In addition, the relative viability in test [4] (first compound 0.08 µM) came out at 0.622; in test [4] (first compound 0.8 µM), 0.635; in test [4] (first compound 2.53 µM), 0.577; in test [5] (first compound 0.08 µM), 0.639; in test [5] (first compound 0.253 µM), 0.707; in test [5] (first compound 0.8 µM), 0.65. Further, the relative viability in test [5] (first compound 2.53 µM) is 0.666; in test [6] (first compound 0.08 µM), 0.771; in test [6] (first compound 0.253 µM) it was 0.588; in test [6] (first compound 0.8 µM), 0.644; in test [6] (first compound 2.53 µM), 0.391.

Source of the values: the supplement of paper PMC10307832.
